Reference: US20160068902A1, “SEQUENCING NUCLEIC ACIDS BY ENZYME ACTIVATION” (CAERUS MOLECULAR DIAGNOSTICS, priority 2013, published 2016)

System: maltose binding protein/lactamase enzyme (switch enzyme)
Experiment: Lactamase switch enzyme activity monitored with chromogenic substrate nitrocefin
Assay type: biochemical
Details: for activation of the switch protein after dephosphorylation: dephosphorylated with shrimp alkaline phosphatase; for activation of the switch protein after dephosphorylation / activation of the switch protein: FIG. 4E; for activation of the switch protein: without dephosphorylation
Text: A maltose with the 1′ hydroxyl attached to the terminal phosphate of a dNTP should not bind effectively to the switch and so should not activate the maltose binding protein/lactamase enzyme^12. The conjugated maltose/dNTP can be used to detect incorporation of dNTP during a cycle of sequencing by synthesis: the enzyme is only activated after incorporation of a dNTP released phospho-maltose which is then be dephosphorylated to yield the maltose activator. […] Maltose monohydrate (1.44 g) was dissolved in 1 ml of water titrated to pH 12.5 by addition of NaOH and heated to 80° C. Trisodium trimetaphosphate (0.31 g) was added and the mixture reacted at room temperature for 25 hours. The maltose-triphosphate product was purified by anion exchange chromatography on a Dowex 1-X2 resin and eluted with 300 mM KCl.
The switch protein was expressed and purified as previously described^21 and enzyme activity was monitored using the chromogenic substrate nitrocefin. […] Addition of maltose increased the enzyme activity more than 210-fold.

activation of the switch protein | increase of enzyme activity on addition of maltose (10 nM switch enzyme, nitrocefin hydrolysis, FIG. 4A) | Lactamase switch hydrolyses nitrocefin faster after maltose addition (FIG. 4(A) legend) | Compound | activation of the switch protein after dephosphorylation | activation of the switch protein after dephosphorylation (listed as Maltose triphosphate)
no appreciable activation | – | – | maltose triphosphate | activation levels similar to that of maltose | significant activation of the lactamase switch only upon dephosphorylation
activates the protein | more than 210 fold | 210 times | OC[C@H]1O[C@H](O[C@H]2[C@H](O)[C@@H](O)C(O)O[C@@H]2CO)[C@H](O)[C@@H](O)[C@@H]1O (mixture of isomers) [maltose] | – | –
